Patent US5043450A, “8-alkoxyquinolonecarboxylic acid and salts thereof” (priority 1986, dated 1991)
≈ marks a conversion by molar mass, not a printed value. Where two headings read alike, the source gives them in different places.

What was measured:
Assay type in all cases: cell-based
S. epidermidis IID 866 = assay: Antibacterial spectra, MIC; conditions: Staphylococcus epidermidis, IID866
[1] = test system: Pseudomonas aeruginosa V-1; assay: Antibacterial spectra, MIC
[2] = test system: Acinetobacter anitratus IID 876; assay: Antibacterial spectra, MIC; conditions: Acinetobacter calcoaceticus, IID876
P. cepacia GIFU 518 = assay: Antibacterial spectra, MIC; conditions: Burkholderia cepacia, GIFU518
B. distasonis 8503 = assay: Antibacterial spectra, MIC; conditions: Parabacteroides distasonis
[3] = test system: Clostridium difficile I-E; assay: Antibacterial spectra, MIC; conditions: Clostridioides difficile
B. fragilis 0558 = assay: Antibacterial spectra, MIC; conditions: Bacteroides fragilis
P. mirabilis IID 994 = assay: Antibacterial spectra, MIC; conditions: Proteus mirabilis, IID994
S. aureus Smith = assay: Antibacterial spectra, MIC; conditions: Staphylococcus aureus
E. coli ATCC 10536 = assay: Antibacterial spectra, MIC; conditions: Escherichia coli, ATCC10536
Pst. micros UPI 5464-1 = assay: Antibacterial spectra, MIC; conditions: Parvimonas micra, UPI54641
[4] = test system: Propionibacterium acens 11828; assay: Antibacterial spectra, MIC
[5] = test system: Staphylococcus aureus 209 P; assay: Antibacterial spectra, MIC
P. aeruginosa IID 1210 = assay: Antibacterial spectra, MIC; conditions: Pseudomonas aeruginosa, IID1210
K. pneumoniae 1-220S = assay: Antibacterial spectra, MIC; conditions: Klebsiella pneumoniae, 1220S
[6] = test system: Enterobacter cloacae IID 977; assay: Antibacterial spectra, MIC
[7] = test system: Klebsiella pneumoniae KY(GN)6445; assay: Antibacterial spectra, MIC
[8] = test system: Serratia marcescens IID 618; assay: Antibacterial spectra, MIC
[9] = test system: Citrobacter freundii IID 976; assay: Antibacterial spectra, MIC
[10] = test system: Peptostreptococcus anaerobius KYA 27337; assay: Antibacterial spectra, MIC; conditions: KYA27337
[11] = test system: Bacteroides fragilis GM 7000; assay: Antibacterial spectra, MIC
[12] = test system: Veillonella parvula KYA 10790; assay: Antibacterial spectra, MIC
C. perfringens KYA 13123 = assay: microbe, parasite or virus in culture; conditions: Clostridium perfringens, KYA13123
B. fragilis 25285 = assay: Antibacterial spectra, MIC; conditions: Bacteroides fragilis
Bacilus subtilis PCI 219 = assay: Antibacterial spectra, MIC; conditions: Bacillus subtilis, PCI219
[13] = test system: S. aureus IID 670 (Terajima); assay: Antibacterial spectra, MIC; conditions: Staphylococcus aureus, IID670
P. maltophilia GIFU 2491 = assay: Antibacterial spectra, MIC; conditions: Stenotrophomonas maltophilia, GIFU2491
[14] = test system: Salmonella enteritidis IID 604; assay: Antibacterial spectra, MIC; conditions: Salmonella enterica
C. ramosum = assay: Antibacterial spectra, MIC; conditions: Thomasclavelia ramosa
Shigella sonnei IID 969 = assay: Antibacterial spectra, MIC; conditions: IID969, 10^6 cells/ml, Gram -
Procedure: (§1) The antibacterial test was carried out according to the method designated by Japan Society of Chemotherapy.

[15] = test system: Proteus vulgaris IFO 3167; assay: Antibacterial spectra, MIC; conditions: IFO3167, 10^6 cells/ml, Gram -
Procedure: as §1

E. coli ML 4707 = assay: Antibacterial spectra, MIC; conditions: Escherichia coli, ML4707; 10^6 cells/ml; Gram -
Procedure: as §1

P. aeruginosa IFO 12689 = assay: Antibacterial spectra, MIC; conditions: Pseudomonas aeruginosa, IFO12689
[16] = test system: Escherichia coli NIHJ JC-2; assay: Antibacterial spectra, MIC
[17] = test system: Fusobacterium mortiferum 4249; assay: Antibacterial spectra, MIC
[18] = test system: Eubacterium lentum GAI 5242; assay: Antibacterial spectra, MIC; conditions: Eggerthella lenta, GAI5242
B. vulgatus KYA 29327 = assay: Antibacterial spectra, MIC; conditions: Phocaeicola vulgatus, KYA29327
[19] = test system: Yersinia enterocolitica IID 981; assay: Antibacterial spectra, MIC
[20] = test system: Peptococcus magnus KY 017; assay: Antibacterial spectra, MIC; conditions: Finegoldia magna, KY017
F. necrophorum S-45 = assay: Antibacterial spectra, MIC; conditions: Fusobacterium necrophorum, S45
[21] = test system: Alcaligenes faecalis 0114002; assay: Antibacterial spectra, MIC
[22] = test system: B. thetaiotaomicron (0661); assay: Antibacterial spectra, MIC; conditions: Bacteroides thetaiotaomicron
[23] = test system: Morganella morganii IID 602; assay: Antibacterial spectra, MIC
F. varium KYA 8501 = assay: Antibacterial spectra, MIC; conditions: Fusobacterium varium, KYA8501
[24] = 10^6 cells/ml, Gram +, read-out: MIC
[25] = 10^6 cells/ml, Gram -, read-out: MIC

SMILES: COc1c(N2CCNCC2)c(F)cc2c(=O)c(C(=O)O)cn(C3CC3)c12 [Exp. 1]
- MIC (S. epidermidis IID 866; [24]): 0.1 µg/mL (≈ 0.277 µM)
- MIC ([1]; V1, 10^6 cells/ml, Gram -, read-out: MIC): 0.1 µg/mL (≈ 0.277 µM)
- MIC [2, 25]: 0.1 µg/mL (≈ 0.277 µM)
- MIC (P. cepacia GIFU 518; [25]): 0.78 µg/mL (≈ 2.16 µM)
- MIC (B. distasonis 8503; [25]): 1.56 µg/mL (≈ 4.32 µM)
- MIC [3]: 3.13 µg/mL (≈ 8.66 µM)
- MIC (B. fragilis 0558): 0.39 µg/mL (≈ 1.08 µM)
- MIC (P. mirabilis IID 994; [25]): 0.025 µg/mL (≈ 0.0692 µM)
- MIC (S. aureus Smith; [24]): 0.1 µg/mL (≈ 0.277 µM)
- MIC (E. coli ATCC 10536; [25]): 0.025 µg/mL (≈ 0.0692 µM)
- MIC (Pst. micros UPI 5464-1; [24]): 0.2 µg/mL (≈ 0.553 µM)
- MIC [4]: 3.13 µg/mL (≈ 8.66 µM)
- MIC [5, 24]: 0.1 µg/mL (≈ 0.277 µM)
- MIC (P. aeruginosa IID 1210): 0.39 µg/mL (≈ 1.08 µM)
- MIC (K. pneumoniae 1-220S; [25]): 0.05 µg/mL (≈ 0.138 µM)
- MIC ([6]; IID977, 10^6 cells/ml, Gram -, read-out: MIC): 0.05 µg/mL (≈ 0.138 µM)
- MIC [7, 25]: 0.025 µg/mL (≈ 0.0692 µM)
- MIC ([8]; IID618, 10^6 cells/ml, Gram -, read-out: MIC): 0.05 µg/mL (≈ 0.138 µM)
- MIC ([9]; IID976, 10^6 cells/ml, Gram -, read-out: MIC): 0.025 µg/mL (≈ 0.0692 µM)
- MIC [10]: 0.39 µg/mL (≈ 1.08 µM)
- MIC ([11]; GM7000, 10^6 cells/ml, Gram -, read-out: MIC): 0.78 µg/mL (≈ 2.16 µM)
- MIC ([12]; KYA10790, 10^6 cells/ml, Gram -, read-out: MIC): 0.2 µg/mL (≈ 0.553 µM)
- MIC (C. perfringens KYA 13123): 0.39 µg/mL (≈ 1.08 µM)
- MIC (B. fragilis 25285): 0.39 µg/mL (≈ 1.08 µM)
- MIC (Bacilus subtilis PCI 219; [24]): 0.025 µg/mL (≈ 0.0692 µM)
- MIC [13, 24]: 0.1 µg/mL (≈ 0.277 µM)
- MIC (P. maltophilia GIFU 2491): 0.39 µg/mL (≈ 1.08 µM)
- MIC [14, 25]: 0.05 µg/mL (≈ 0.138 µM)
- MIC (C. ramosum): 3.13 µg/mL (≈ 8.66 µM)
- MIC (Shigella sonnei IID 969): 0.0125 µg/mL (≈ 0.0346 µM)
- MIC [15]: 0.0125 µg/mL (≈ 0.0346 µM)
- MIC (E. coli ML 4707): 0.025 µg/mL (≈ 0.0692 µM)
- MIC (P. aeruginosa IFO 12689; [25]): 0.78 µg/mL (≈ 2.16 µM)
- MIC ([16]; NIHJJC2, 10^6 cells/ml, Gram -, read-out: MIC): ≤ 6.3 ng/mL
- MIC [17]: 0.39 µg/mL (≈ 1.08 µM)
- MIC [18, 24]: 0.2 µg/mL (≈ 0.553 µM)
- MIC (B. vulgatus KYA 29327; [25]): 0.78 µg/mL (≈ 2.16 µM)
- MIC ([19]; IID981, 10^6 cells/ml, Gram -, read-out: MIC): 0.05 µg/mL (≈ 0.138 µM)
- MIC [20, 24]: 0.2 µg/mL (≈ 0.553 µM)
- MIC (F. necrophorum S-45): 0.39 µg/mL (≈ 1.08 µM)
- MIC [21, 25]: 0.2 µg/mL (≈ 0.553 µM)
- MIC [22, 25]: 1.56 µg/mL (≈ 4.32 µM)
- MIC ([23]; IID602, 10^6 cells/ml, Gram -, read-out: MIC): 0.05 µg/mL (≈ 0.138 µM)
- MIC (F. varium KYA 8501): 3.13 µg/mL (≈ 8.66 µM)

SMILES: COc1c(N2CCNC(C)C2)c(F)cc2c(=O)c(C(=O)O)cn(C3CC3)c12 (stereo not shown) [Exp. 3, 1-cyclopropyl-6-fluoro-1,4-dihydro-8-methoxy-7-(3-methyl-1-piperazinyl)-4-oxo-3-quinolinecarboxylic acid]
- MIC (S. epidermidis IID 866): 0.1 µg/mL (≈ 0.266 µM)
- MIC ([1]; V1): 0.2 µg/mL (≈ 0.533 µM)
- MIC [2]: 0.1 µg/mL (≈ 0.266 µM)
- MIC (P. cepacia GIFU 518): 1.56 µg/mL (≈ 4.16 µM)
- MIC (B. distasonis 8503): 0.78 µg/mL (≈ 2.08 µM)
- MIC [3]: 3.13 µg/mL (≈ 8.34 µM)
- MIC (B. fragilis 0558): 0.39 µg/mL (≈ 1.04 µM)
- MIC (P. mirabilis IID 994): 0.025 µg/mL (≈ 0.0666 µM)
- MIC (S. aureus Smith): 0.1 µg/mL (≈ 0.266 µM)
- MIC (E. coli ATCC 10536): 0.0125 µg/mL (≈ 0.0333 µM)
- MIC (Pst. micros UPI 5464-1): 0.2 µg/mL (≈ 0.533 µM)
- MIC [4]: 6.25 µg/mL (≈ 16.6 µM)
- MIC [5]: 0.1 µg/mL (≈ 0.266 µM)
- MIC (P. aeruginosa IID 1210): 1.56 µg/mL (≈ 4.16 µM)
- MIC (K. pneumoniae 1-220S): 0.05 µg/mL (≈ 0.133 µM)
- MIC ([6]; IID977): 0.05 µg/mL (≈ 0.133 µM)
- MIC [7]: 0.025 µg/mL (≈ 0.0666 µM)
- MIC ([8]; IID618): 0.1 µg/mL (≈ 0.266 µM)
- MIC ([9]; IID976): 0.025 µg/mL (≈ 0.0666 µM)
- MIC [10]: 0.39 µg/mL (≈ 1.04 µM)
- MIC ([11]; GM7000): 0.39 µg/mL (≈ 1.04 µM)
- MIC ([12]; KYA10790): 0.2 µg/mL (≈ 0.533 µM)
- MIC (C. perfringens KYA 13123): 0.39 µg/mL (≈ 1.04 µM)
- MIC (B. fragilis 25285): 0.39 µg/mL (≈ 1.04 µM)
- MIC (Bacilus subtilis PCI 219): 0.025 µg/mL (≈ 0.0666 µM)
- MIC [13]: 0.1 µg/mL (≈ 0.266 µM)
- MIC (P. maltophilia GIFU 2491): 0.2 µg/mL (≈ 0.533 µM)
- MIC [14]: 0.05 µg/mL (≈ 0.133 µM)
- MIC (C. ramosum): 3.13 µg/mL (≈ 8.34 µM)
- MIC (Shigella sonnei IID 969): 0.0125 µg/mL (≈ 0.0333 µM)
- MIC [15]: 0.025 µg/mL (≈ 0.0666 µM)
- MIC (E. coli ML 4707): 0.0125 µg/mL (≈ 0.0333 µM)
- MIC (P. aeruginosa IFO 12689): 1.56 µg/mL (≈ 4.16 µM)
- MIC ([16]; NIHJJC2): ≤ 6.3 ng/mL
- MIC [17]: 0.78 µg/mL (≈ 2.08 µM)
- MIC [18]: 0.2 µg/mL (≈ 0.533 µM)
- MIC (B. vulgatus KYA 29327): 0.78 µg/mL (≈ 2.08 µM)
- MIC ([19]; IID981): 0.05 µg/mL (≈ 0.133 µM)
- MIC [20]: 0.2 µg/mL (≈ 0.533 µM)
- MIC (F. necrophorum S-45): 0.39 µg/mL (≈ 1.04 µM)
- MIC [21]: 0.39 µg/mL (≈ 1.04 µM)
- MIC [22]: 0.78 µg/mL (≈ 2.08 µM)
- MIC ([23]; IID602): 0.1 µg/mL (≈ 0.266 µM)
- MIC (F. varium KYA 8501): 6.25 µg/mL (≈ 16.6 µM)
